Results published in patent US9499519B2, “Fused pyrimidine compounds and use thereof” (Medivation Technologies, Inc., priority 2012, dated 2016).
Like-named read-outs stand apart in the source and are kept apart here.

Key:
[1] = test system: Akt phosphorylation induced by IGF-1R; experiment: Western blot analysis of Akt phosphorylation induced by IGF-1 in HT-29 cells; format: cell-based, Human; details: for Levels of phosphorylated AKT in treated cells (pAKT/actin): HT-29 cells, IGF-1; for p-AKT relative to levels with 0.1 nM compound: Table B2 lower part; for Normalized phosphorylated AKT (relative to actin) levels relative to 0.1 nM compound treatment: Table B2 upper part
Experimental: Inhibition of Akt phosphorylation induced by IGF-1R was studied by western blot analysis. Human colon carcinoma HT-29 cells were seeded at a density of 8×10^4 cells/well in a 24-well plate and grown in DME/F12 media containing 10% FBS for 24 h. The cells were then depleted of serum by incubation in DME/F12 media lacking FBS for 24 h. […] […] Lysed cells were centrifuged at 13,000 rpm for 15 min and the protein concentration soluble fraction (supernatant) of each sample was determined using a BCA protein assay (Pierce).

IR = target: T1, IR (Homo sapiens, UniProt P06213); experiment: In vitro IR enzymatic assay (ADP-Glo kinase assay); format: biochemical; details: activated IR, 30 nM; for % Inh @ 30 nM (N1) / % Inh @ 30 nM (N2): 0.03 µM
T1 construct: purchased Millipore 14-803
T1 sequence (P06213 28-1382): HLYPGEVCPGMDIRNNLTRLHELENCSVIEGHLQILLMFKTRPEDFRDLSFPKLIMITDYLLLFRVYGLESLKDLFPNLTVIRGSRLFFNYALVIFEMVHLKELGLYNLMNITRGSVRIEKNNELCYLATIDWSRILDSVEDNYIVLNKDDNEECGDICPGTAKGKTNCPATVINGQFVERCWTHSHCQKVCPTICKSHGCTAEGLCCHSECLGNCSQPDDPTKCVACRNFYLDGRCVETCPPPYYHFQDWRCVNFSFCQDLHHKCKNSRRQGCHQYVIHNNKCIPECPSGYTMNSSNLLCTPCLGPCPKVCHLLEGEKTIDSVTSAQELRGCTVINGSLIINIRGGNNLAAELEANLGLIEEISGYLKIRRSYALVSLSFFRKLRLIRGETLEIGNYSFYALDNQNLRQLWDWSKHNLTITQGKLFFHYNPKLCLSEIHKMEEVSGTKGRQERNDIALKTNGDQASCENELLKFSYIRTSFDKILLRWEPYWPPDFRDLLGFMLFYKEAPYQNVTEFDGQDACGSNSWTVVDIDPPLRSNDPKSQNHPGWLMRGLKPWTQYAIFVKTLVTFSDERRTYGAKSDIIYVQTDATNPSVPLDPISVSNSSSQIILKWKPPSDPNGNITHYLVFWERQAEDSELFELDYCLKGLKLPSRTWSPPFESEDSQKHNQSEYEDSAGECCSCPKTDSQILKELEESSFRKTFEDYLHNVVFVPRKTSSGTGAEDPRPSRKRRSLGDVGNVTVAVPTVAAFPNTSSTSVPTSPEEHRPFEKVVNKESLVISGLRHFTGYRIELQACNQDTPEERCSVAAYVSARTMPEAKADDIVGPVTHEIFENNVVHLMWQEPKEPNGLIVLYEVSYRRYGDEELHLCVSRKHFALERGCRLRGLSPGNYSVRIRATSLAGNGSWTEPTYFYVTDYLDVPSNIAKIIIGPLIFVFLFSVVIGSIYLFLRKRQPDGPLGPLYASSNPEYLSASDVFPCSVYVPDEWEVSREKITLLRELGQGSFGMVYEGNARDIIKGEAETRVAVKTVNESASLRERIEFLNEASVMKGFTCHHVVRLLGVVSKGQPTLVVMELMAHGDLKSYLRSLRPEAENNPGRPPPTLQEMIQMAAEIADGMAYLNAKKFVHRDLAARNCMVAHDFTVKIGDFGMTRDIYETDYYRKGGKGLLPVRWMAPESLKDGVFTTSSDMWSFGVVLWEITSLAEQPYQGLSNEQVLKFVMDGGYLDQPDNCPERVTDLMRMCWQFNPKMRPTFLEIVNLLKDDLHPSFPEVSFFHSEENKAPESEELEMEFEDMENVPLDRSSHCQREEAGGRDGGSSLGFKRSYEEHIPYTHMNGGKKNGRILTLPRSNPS
Experimental: (§1) IC50 values of the compounds of the invention against IGF-1R and IR were measured in vitro using an ADP-Glo kinase assay Kit (Promega). […] Kinase reactions in both assays were conducted at 30° C. for 20 min with increasing concentrations of compounds of the invention.
Additional compounds of the invention were screened against activated IR.

IGF-1R = target: T2, IGF-1R (Homo sapiens, UniProt P08069); experiment: In vitro IGF-1R enzymatic assay (ADP-Glo kinase assay); format: biochemical; details: activated IGF-1R; for inhibition at 0.03 µM / % Inh @ 30 nM (N1) / % Inh @ 30 nM (N2) / % Inh @ 30 nM Avg: 30 nM; for % Inh @ 30 nM (N1) / % Inh @ 30 nM (N2): 0.03 µM
T2 construct: purchased Millipore 14-802
T2 sequence (P08069 31-1367): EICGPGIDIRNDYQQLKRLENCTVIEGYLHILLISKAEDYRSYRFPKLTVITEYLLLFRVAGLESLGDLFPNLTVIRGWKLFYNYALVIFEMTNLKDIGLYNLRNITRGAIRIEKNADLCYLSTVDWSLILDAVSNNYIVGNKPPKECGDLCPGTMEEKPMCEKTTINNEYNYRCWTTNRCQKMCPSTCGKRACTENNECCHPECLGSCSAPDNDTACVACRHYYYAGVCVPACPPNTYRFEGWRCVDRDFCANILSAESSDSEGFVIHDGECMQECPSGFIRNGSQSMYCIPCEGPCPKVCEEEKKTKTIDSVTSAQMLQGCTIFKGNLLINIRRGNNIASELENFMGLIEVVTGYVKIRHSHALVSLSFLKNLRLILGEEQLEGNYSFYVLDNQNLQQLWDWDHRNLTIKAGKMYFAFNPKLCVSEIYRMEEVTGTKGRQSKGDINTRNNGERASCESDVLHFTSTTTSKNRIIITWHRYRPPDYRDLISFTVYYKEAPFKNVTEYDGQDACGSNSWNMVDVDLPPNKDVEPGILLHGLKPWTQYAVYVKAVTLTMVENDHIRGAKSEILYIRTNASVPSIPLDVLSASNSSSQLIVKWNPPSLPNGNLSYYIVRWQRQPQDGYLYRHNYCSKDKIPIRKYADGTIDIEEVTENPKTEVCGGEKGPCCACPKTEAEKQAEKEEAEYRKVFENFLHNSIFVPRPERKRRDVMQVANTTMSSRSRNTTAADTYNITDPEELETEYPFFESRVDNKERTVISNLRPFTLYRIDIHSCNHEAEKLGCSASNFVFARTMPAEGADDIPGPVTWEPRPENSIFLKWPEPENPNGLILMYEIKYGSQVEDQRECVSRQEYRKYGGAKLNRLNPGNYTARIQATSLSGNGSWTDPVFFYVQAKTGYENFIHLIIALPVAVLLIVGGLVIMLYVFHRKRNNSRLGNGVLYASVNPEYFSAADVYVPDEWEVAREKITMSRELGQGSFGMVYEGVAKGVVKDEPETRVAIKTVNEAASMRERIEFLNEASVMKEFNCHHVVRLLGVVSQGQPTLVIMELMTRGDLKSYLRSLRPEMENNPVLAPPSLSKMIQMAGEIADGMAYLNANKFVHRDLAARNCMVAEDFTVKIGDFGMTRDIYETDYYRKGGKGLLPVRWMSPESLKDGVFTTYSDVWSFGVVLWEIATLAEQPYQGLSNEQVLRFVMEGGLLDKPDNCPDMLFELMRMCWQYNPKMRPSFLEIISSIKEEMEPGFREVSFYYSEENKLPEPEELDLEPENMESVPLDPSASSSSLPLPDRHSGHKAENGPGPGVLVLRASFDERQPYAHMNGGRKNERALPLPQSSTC
Experimental: as §1
Additional compounds of the invention were screened against activated IGF-1R.

[2] = N1, read-out: % Inh @ 30 nM (N1)
[3] = N2, read-out: % Inh @ 30 nM (N2)
[4] = average, read-out: % Inh @ 30 nM Avg

Row | Structure (SMILES) | inhibition at 0.03 µM (IR; [4]) [%] | inhibition at 0.03 µM (IGF-1R; [4]) [%] | % Inh @ 30 nM Avg (IR; average) [%] | % Inh @ 30 nM Avg (IGF-1R; average) [%] | Levels of phosphorylated AKT in treated cells (pAKT/actin) ([1]; 0.1 nM compound) | p-AKT relative to levels with 0.1 nM compound ([1]; 0.1 nM) | Normalized phosphorylated AKT (relative to actin) levels relative to 0.1 nM compound treatment ([1]; 0.1 nM) | Levels of phosphorylated AKT in treated cells (pAKT/actin) ([1]; 1 nM compound) | p-AKT relative to levels with 0.1 nM compound ([1]; 1 nM) | Normalized phosphorylated AKT (relative to actin) levels relative to 0.1 nM compound treatment ([1]; 1 nM) | Levels of phosphorylated AKT in treated cells (pAKT/actin) ([1]; 10 nM compound) | p-AKT relative to levels with 0.1 nM compound ([1]; 10 nM) | Normalized phosphorylated AKT (relative to actin) levels relative to 0.1 nM compound treatment ([1]; 10 nM) | Levels of phosphorylated AKT in treated cells (pAKT/actin) ([1]; 100 nM compound) | p-AKT relative to levels with 0.1 nM compound ([1]; 100 nM) | Normalized phosphorylated AKT (relative to actin) levels relative to 0.1 nM compound treatment ([1]; 100 nM) | further results
1 | O=C(Nc1ccc(F)nc1)C1CCCN1c1nc2c(c(Nc3cc(C4CC4)[nH]n3)n1)CCC2 (single isomer, unassigned) [Compound 2a, 1-(4-(5-cyclopropyl-1H-pyrazol-3-ylamino)-6,7-dihydro-5H-cyclopenta[d]pyrimidin-2-yl)-N-(6-fluoropyridin-3-yl)pyrrolidine-2-carboxamide] | 5 | 3 |  |  | 1.70 | 1.0 | 1.0 | 1.78 | 1.0 | 1.0 | 1.81 | 1.1 | 1.1 | 1.72 | 1.0 | 1.0 | inhibition at 0.03 µM (IR; [2]): 0%; inhibition at 0.03 µM (IR; [3]): 10%; inhibition at 0.03 µM (IGF-1R; [2]): -12%; inhibition at 0.03 µM (IGF-1R; [3]): 18%
2 | O=C(Nc1ccc(F)nc1)C1CCCN1c1nc2c(c(Nc3cc(C4CCCC4)[nH]n3)n1)CCC2 (single isomer, unassigned) [Compound 4a, 1-(4-(3-cyclopentyl-1H-pyrazol-5-ylamino)-6,7-dihydro-5H-cyclopenta[d]pyrimidin-2-yl)-N-(6-fluoropyridin-3-yl)pyrrolidine-2-carboxamide] |  |  | −8 | 10 | 2.38 | 1.0 | 1.0 | 1.64 | 0.7 | 0.7 | 1.76 | 0.7 | 0.7 | 1.47 | 0.6 | 0.6 | % Inh @ 30 nM (N1) (IR; N1): −14%; % Inh @ 30 nM (N2) (IR; N2): −2%; % Inh @ 30 nM (N1) (IGF-1R; N1): 4%; % Inh @ 30 nM (N2) (IGF-1R; N2): 17%
3 | O=C(Nc1ccc(F)nc1)C1CCCN1c1nc2c(c(Nc3cc(C4CCCC4)[nH]n3)n1)CCC2 (single isomer, unassigned) [Compound 4b, 1-(4-(3-cyclopentyl-1H-pyrazol-5-ylamino)-6,7-dihydro-5H-cyclopenta[d]pyrimidin-2-yl)-N-(6-fluoropyridin-3-yl)pyrrolidine-2-carboxamide] |  |  | 37 | 28 | 1.81 | 1.0 | 1.0 | 1.92 | 1.1 | 1.1 | 1.64 | 0.9 | 0.9 | 0.20 | 0.1 | 0.1 | % Inh @ 30 nM (N1) (IR; N1): 41%; % Inh @ 30 nM (N2) (IR; N2): 33%; % Inh @ 30 nM (N1) (IGF-1R; N1): 22%; % Inh @ 30 nM (N2) (IGF-1R; N2): 35%
4 | O=C(Nc1ccc(F)nc1)C1CC(O)CN1c1nc2c(c(Nc3cc(C4CC4)[nH]n3)n1)CCC2 (single isomer, unassigned) [Compound 10d, 1-(4-(5-cyclopropyl-1H-pyrazol-3-ylamino)-6,7-dihydro-5H-cyclopenta[d]pyrimidin-2-yl)-N-(6-fluoropyridin-3-yl)-4-hydroxypyrrolidine-2-carboxamide] | 85 | 84 |  |  |  |  |  |  |  |  |  |  |  |  |  |  | 

Further lines, with some results ahead:

Row | inhibition at 0.03 µM (IR; [4]) [%] | inhibition at 0.03 µM (IGF-1R; [4]) [%] | % Inh @ 30 nM Avg (IR; average) [%] | % Inh @ 30 nM Avg (IGF-1R; average) [%] | Structure (SMILES) | Levels of phosphorylated AKT in treated cells (pAKT/actin) ([1]; 0.1 nM compound) | p-AKT relative to levels with 0.1 nM compound ([1]; 0.1 nM) | Normalized phosphorylated AKT (relative to actin) levels relative to 0.1 nM compound treatment ([1]; 0.1 nM) | Levels of phosphorylated AKT in treated cells (pAKT/actin) ([1]; 1 nM compound) | p-AKT relative to levels with 0.1 nM compound ([1]; 1 nM) | Normalized phosphorylated AKT (relative to actin) levels relative to 0.1 nM compound treatment ([1]; 1 nM) | Levels of phosphorylated AKT in treated cells (pAKT/actin) ([1]; 10 nM compound) | p-AKT relative to levels with 0.1 nM compound ([1]; 10 nM) | Normalized phosphorylated AKT (relative to actin) levels relative to 0.1 nM compound treatment ([1]; 10 nM) | Levels of phosphorylated AKT in treated cells (pAKT/actin) ([1]; 100 nM compound) | p-AKT relative to levels with 0.1 nM compound ([1]; 100 nM) | Normalized phosphorylated AKT (relative to actin) levels relative to 0.1 nM compound treatment ([1]; 100 nM) | further results
5 | -12 | 24 |  |  | CC(C)c1cc(Nc2nc(N3CCCC3C(=O)Nc3ccc(F)nc3)nc3c2CCC3)on1 (racemic) [Compound 12b, N-(6-fluoropyridin-3-yl)-1-(4-(3-isopropylisoxazol-5-ylamino)-6,7-dihydro-5H-cyclopenta[d]pyrimidin-2-yl)pyrrolidine-2-carboxamide] | 3.66 | 1.0 | 1.0 | 3.56 | 1.0 | 1.0 | 4.32 | 1.2 | 1.2 | 2.29 | 0.6 | 0.6 | inhibition at 0.03 µM (IR; [2]): -14%; inhibition at 0.03 µM (IR; [3]): -10%; inhibition at 0.03 µM (IGF-1R; [2]): 13%; inhibition at 0.03 µM (IGF-1R; [3]): 34%
6 | 60 | 66 |  |  | CC(C)c1cc(Nc2nc(N3CC(O)CC3C(=O)Nc3ccc(F)nc3)nc3c2CCC3)n[nH]1 (racemic) [Compound 70, N-(6-fluoropyridin-3-yl)-4-hydroxy-1-(4-(5-isopropyl-1H-pyrazol-3-ylamino)-6,7-dihydro-5H-cyclopenta[d]pyrimidin-2-yl)pyrrolidine-2-carboxamide] |  |  |  |  |  |  |  |  |  |  |  |  | IC50 (IGF-1R): 22 nM
7 |  |  | 3 | 14 | CC(C)c1cc(Nc2nc(N3CCCC3C(N)=O)nc3c2CCC3)n[nH]1 (single isomer, unassigned) [Compound 18a, 1-(4-(5-isopropyl-1H-pyrazol-3-ylamino)-6,7-dihydro-5H-cyclopenta[d]pyrimidin-2-yl)pyrrolidine-2-carboxamide] |  |  |  |  |  |  |  |  |  |  |  |  | 
8 |  |  | 32 | 39 | CC(C)c1cc(Nc2nc(N3CCCC3C(N)=O)nc3c2CCC3)n[nH]1 (single isomer, unassigned) [Compound 18b, 1-(4-(5-isopropyl-1H-pyrazol-3-ylamino)-6,7-dihydro-5H-cyclopenta[d]pyrimidin-2-yl)pyrrolidine-2-carboxamide] |  |  |  |  |  |  |  |  |  |  |  |  | 
9 |  |  | −9 | −3 | CNC(=O)C1CCCN1c1nc2c(c(Nc3cc(C(C)C)[nH]n3)n1)CCC2 (single isomer, unassigned) [Compound 19a, 1-(4-(5-isopropyl-1H-pyrazol-3-ylamino)-6,7-dihydro-5H-cyclopenta[d]pyrimidin-2-yl)-N-methylpyrrolidine-2-carboxamide] |  |  |  |  |  |  |  |  |  |  |  |  | 
10 |  |  | 9 | 21 | CNC(=O)C1CCCN1c1nc2c(c(Nc3cc(C(C)C)[nH]n3)n1)CCC2 (single isomer, unassigned) [Compound 19b, 1-(4-(5-isopropyl-1H-pyrazol-3-ylamino)-6,7-dihydro-5H-cyclopenta[d]pyrimidin-2-yl)-N-methylpyrrolidine-2-carboxamide] |  |  |  |  |  |  |  |  |  |  |  |  | 
11 | 8 | 13 |  |  | CC(C)c1cc(Nc2nc(N3CCCC3C(=O)N(C)c3ccc(F)nc3)nc3c2CCC3)n[nH]1 (stereo not drawn) [Compound 55a, N-(6-fluoropyridin-3-yl)-1-(4-((5-isopropyl-1H-pyrazol-3-yl)amino)-6,7-dihydro-5H-cyclopenta[d]pyrimidin-2-yl)-N-methylpyrrolidine-2-carboxamide] |  |  |  |  |  |  |  |  |  |  |  |  | 
